From patent US8318764B2, “Macrocyclic inhibitors of JAK” (Roche Palo Alto LLC, priority 2009, dated 2012)

target: T1, JAK3: Recombinant human kinase domain (810-1124) (Homo sapiens, UniProt P52333); assay: Determination of IC50 of Janus Kinase (JAK) inhibition, radioactive 33P-ATP end-point assay, JAK3; format: biochemical; details: 0.1 nM JAK3, ATP 1.5 uM, peptide 50 uM, 20 minutes, room temperature; read-out: JAK3 Enzyme IC50
T1 construct: Recombinant human kinase domain (810-1124); made in house
T1 sequence (P52333 810-1124): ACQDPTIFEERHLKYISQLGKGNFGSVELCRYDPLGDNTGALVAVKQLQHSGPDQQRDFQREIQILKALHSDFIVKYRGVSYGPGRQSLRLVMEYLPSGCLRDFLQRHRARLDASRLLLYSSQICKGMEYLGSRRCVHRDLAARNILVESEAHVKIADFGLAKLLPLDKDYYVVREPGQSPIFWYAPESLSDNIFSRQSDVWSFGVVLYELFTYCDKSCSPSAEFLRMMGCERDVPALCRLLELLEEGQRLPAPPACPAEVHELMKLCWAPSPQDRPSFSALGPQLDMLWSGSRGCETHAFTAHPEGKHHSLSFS
Experimental: Determination of IC50 of Janus Kinase (JAK) inhibition:
Enzymes and peptide substrate used are described below:
JAK3: Recombinant human kinase domain (810-1124) made in house by Roche Palo Alto
Substrate: N-terminally biotinylated 14-mer peptide derived from activation loop of JAK1 with sequence of the peptide substrate: Biotin-KAIETDKEYYTVKD
Assay conditions used are described below:
Assay Buffer: JAK Kinase Buffer: 50 mM Hepes [pH 7.2], 10 mM MgCl2, 1 mM DTT, 1 mg/ml BSA. The assay is carried out in this buffer.
Assay Format: The kinase activity of all three JAK kinases is measured using a radioactive, end-point assay and with trace amounts of ^33P-ATP. The assays are carried out in 96-well polypropylene plates.
All concentrations are final in the reaction mixture and all incubations are carried at room temperature. Assay steps are described below:
1) Compounds are serially diluted in 100% DMSO typically at a 10× starting concentration of 1 mM. Final concentration of DMSO in the reaction is 10%.
2) Compounds are preincubated with enzyme (0.1 nM JAK3, 1 nM JAK2, 5 nM JAK1) for 10 minutes.
3) Reactions are initiated by the addition of a cocktail of the two substrates (ATP and peptide premixed in the JAK Kinase Buffer). In the JAK1/JAK2/JAK3 assays, ATP and the peptide are used at concentrations of 1.5 uM and 50 uM, respectively. The duration of the assay for JAK2 and JAK3 is 20 minutes. JAK1 assay is carried out for 45 minutes. With all three enzymes, reactions are terminated by the addition of 0.5M EDTA to a final concentration of 100 mM. 4) 25 ul of terminated reactions are transferred to 150 ul of a 7.5% (v/v) slurry of streptavidin-coated sepharose beads in MgCl2- and CaCl2-free 1× Phosphate Buffered Saline containing 50 mM of EDTA in 96-well, 1.2 um MultiScreen-BV filter plates. 5) After a 30-minute incubation, the beads are washed under vacuum with the following buffers:
a. 3 to 4 washes with 200 ul of 2M NaCl.
b. 3 to 4 washes with 200 ul of 2M NaCl plus 1% (v/v) phosphoric acid.
6) Washed plates are dried in a 60° C. oven for between 1 to 2 hours.
7) 70 ul of Microscint 20 scintillation fluid is added to each well of filter plates and after at least 30 minutes of incubation, radioactive counts are measured in a Perkin Elmer microplate scintillation counter.

Row | IC50 | SMILES
1 | 0.28 µM | CCC1(C)CCCCCc2cccc(n2)Nc2n[nH]c3c2CN(C3)C1=O (centres unmarked) [Compound I-4]
2 | 0.53 µM | CCC1(C)CCCCOc2cccc(n2)Nc2n[nH]c3c2CN(C3)C1=O (centres unmarked) [Compound I-5]
3 | 0.811 µM | CC1(C)CCCCc2cccc(n2)Nc2n[nH]c3c2CN(C3)C1=O [Compound I-7]
4 | 0.915 µM | CCC1(C)CCCCCCc2cccc(n2)Nc2n[nH]c3c2CN(C3)C1=O (centres unmarked) [Compound I-1]
5 | 0.487 µM | CC1CCc2cccc(n2)Nc2n[nH]c3c2CN(C3)C(=O)C(C)(C)CC1 (centres unmarked) [Compound I-11]
6 | 0.0426 µM | CC12CCN(CCCCc3cccc(n3)Nc3n[nH]c4c3CN(C4)C1=O)C2 (centres unmarked) [Compound I-12]
7 | 0.343 µM | CC1(C)CCCCCOc2cccc(n2)Nc2n[nH]c3c2CN(C3)C1=O [Compound I-10]
8 | 0.502 µM | CC1(C)CCCCCc2cccc(n2)Nc2n[nH]c3c2CN(C3)C1=O [Compound I-6]
9 | > 10 µM | CC1(C)CCCCCc2cc(ccn2)Nc2n[nH]c3c2CN(C3)C1=O [Compound I-3]
10 | > 1 µM | O=C1N2Cc3[nH]nc(c3C2)Nc2cccc(n2)CCCCCC12CCOCC2 [Compound I-17]
11 | 0.0928 µM | CC12CCN(CCCc3cccc(n3)Nc3n[nH]c4c3CN(C4)C1=O)C2 (centres unmarked) [Compound I-13]
12 | > 3 µM | CC1(C)CCCOc2cccc(n2)Nc2n[nH]c3c2CN(C3)C1=O [Compound I-9]
13 | 0.444 µM | O=C1N2Cc3[nH]nc(c3C2)Nc2cccc(n2)CCCCCC12CCCC2 [Compound I-15]
14 | 0.795 µM | CC1CCCCC(C)(C)C(=O)N2Cc3[nH]nc(c3C2)Nc2cccc1n2 (centres unmarked) [Compound I-2]
15 | > 1 µM | CC1(c2ccccc2)CCCCCc2cccc(n2)Nc2n[nH]c3c2CN(C3)C1=O (centres unmarked) [Compound I-16]
16 | 4.21 µM | O=C1N2Cc3[nH]nc(c3C2)Nc2cccc(n2)CCCCCC12CCCCC2 [Compound I-14]
17 | 1.04 µM | CC1(C)CCCCOc2cccc(n2)Nc2n[nH]c3c2CN(C3)C1=O [Compound I-8]
